The first assay has as its system adjuvant-induced arthritis in rats. Nature of the assay: Established Adjuvant-Induced Arthritis in Rats (A.A.). The settings on record: @ 3 mg/Kg, oral, rats. Type of assay: in vivo, Charles River Lewis male rats.
Turning to `Cn1c(S(=O)(=O)C(F)(F)F)nc(-c2ccc(F)cc2)c1-c1ccc(F)cc1` [Example 29], the “% paw volume reduction from control” value amounted to 33%.

Staying with this assay, now noted: @ 7 mg/Kg, oral, rats.
For the compound `CN(C)CCn1c(S(=O)(=O)C(F)(F)C(F)F)nc(-c2ccc(F)cc2)c1-c1ccc(F)cc1` [Example 27], the “% paw volume reduction from control” value amounted to 76%.

The same assay, now with this note: @ 9 mg/Kg, oral, rats.
As to `CCCn1c(S(=O)(=O)C(F)(F)C(F)F)nc(-c2ccc(F)cc2)c1-c1ccc(F)cc1` [Example 24], the “% paw volume reduction from control” value was 33%.

The same assay, now with this note: @ 10 mg/Kg, oral, rats.
For the compound `FC(F)(F)Sc1nc(-c2ccccc2)c(-c2ccccc2)n1COCc1ccccc1` [Example 1, 1-Benzyloxymethyl-4,5-diphenyl-2-trifluoromethylthioimidazole], the “% paw volume reduction from control” value is 34%.

The same assay, now with this note: @ 15 mg/Kg, oral, rats.
As to `CN(C)C(=S)n1c(SC(F)(F)C(F)F)nc(-c2ccccc2)c1-c1ccccc1` [Example 9, 1-(N,N-Dimethylthiocarbamoyl)-4,5-diphenyl-2-(1,1,2,2-tetrafluoroethylthio)imidazole], the “% paw volume reduction from control” value amounted to 53%.

Still in this assay, the particulars now being: @ 20 mg/Kg, oral, rats.
Consider `COc1ccc(-c2nc(S(=O)(=O)C(F)(F)CF)n(C)c2-c2ccc(OC)cc2)cc1` [Example 31], for which the “% paw volume reduction from control” value worked out at 36%.

The same assay, now with this note: @ 25 mg/Kg, oral, rats.
In the case of `O=C(OCc1ccccc1)n1c(SC(F)(F)C(F)F)nc(-c2ccccc2)c1-c1ccccc1` [Example 12, 1-Benzyloxycarbonyl-4,5-diphenyl-2-(1,1,2,2-tetrafluoroethylthio)imidazole], the “% paw volume reduction from control” value worked out at 69%.

Still in this assay, the particulars now being: Rattus norvegicus, po, read-out: A.A. ED50 % (ED50% decrease from control paw volume).
Usually ED50 stands for the midpoint of the dose-response relation. `COc1ccc2c(c1)c(CC(=O)O)c(C)n2C(=O)c1ccc(Cl)cc1` [Indomethacin, reference compound]: the median effective dose (ED50) worked out at 0.3 mg/kg.

Regarding `CC(=O)Oc1ccccc1C(=O)O` [Aspirin, reference compound], the ED50 came to 305 mg/kg.

Still in this assay, the particulars now being: Rattus norvegicus; oral, 7 daily doses, rats; determined as % paw volume reduction from control (uninjected, left hind paw); read-out: A.A. ED50 % (ED50% decrease from control paw volume).
Take `COc1ccc(-c2nc(S(=O)(=O)C(F)(F)CF)n(C)c2-c2ccc(OC)cc2)cc1` [Example 31]: the ED50 is over 20 mg/kg.

For the compound `CC(=O)n1c(SC(F)(F)C(F)F)nc(-c2ccccc2)c1-c1ccccc1` [Example 15, 1-Acetyl-4,5-diphenyl-2-(1,1,2,2-tetrafluoroethylthio)imidazole], the ED50 worked out at 0.9 mg/kg.

Regarding `Cn1c(S(=O)(=O)C(F)(F)F)nc(-c2ccc(F)cc2)c1-c1ccc(F)cc1` [Example 29], the ED50 was over 3 mg/kg.

`O=S(=O)(c1ccccc1)n1c(SC(F)(F)F)nc(-c2ccc(F)cc2)c1-c1ccc(F)cc1` [Example 17, 1-Benzenesulfonyl-4,5-bis(4-fluorophenyl)-2-(trifluoromethylthio)imidazole]: the median effective dose (ED50) stood at 0.18 mg/kg.

`FC(F)(F)Sc1nc(-c2ccccc2)c(-c2ccccc2)n1COCc1ccccc1` [Example 1, 1-Benzyloxymethyl-4,5-diphenyl-2-trifluoromethylthioimidazole]: the ED50 is over 10 mg/kg.

For `CCCCC1C(=O)N(c2ccccc2)N(c2ccccc2)C1=O` [Phenylbutazone, reference compound], the median effective dose (ED50) was determined as 10 mg/kg.

Regarding `CCOC(=O)n1c(SC(F)(F)C(F)F)nc(-c2ccc(F)cc2)c1-c1ccc(F)cc1` [Example 6, 1-Ethoxycarbonyl-4,5-bis(4-fluorophenyl)-2-(1,1,2,2-tetrafluoroethylthio)imidazole], the ED50 was determined as 0.15 mg/kg.

With `CCCCn1c(S(=O)(=O)C(F)(F)C(F)F)nc(-c2ccc(F)cc2)c1-c1ccc(F)cc1` [Example 25], the ED50 amounted to 5 mg/kg.

Regarding `C=CCn1c(SC(F)(F)C(F)F)nc(-c2ccc(F)cc2)c1-c1ccc(F)cc1` [Example 22], the median effective dose (ED50) was found to be 1.3 mg/kg.

Take `CC(C)Cc1ccc(C(C)C(=O)O)cc1` (stereo not drawn) [Ibuprofen, reference compound]: the ED50 was 100 mg/kg.

`CC(C)n1c(SC(F)(F)C(F)F)nc(-c2ccc(F)cc2)c1-c1ccc(F)cc1` [Example 18, 4,5-bis(4-Fluorophenyl)-1-isopropyl-2-(1,1,2,2-tetrafluoroethylthio)imidazole]: the ED50 came to 10 mg/kg.

For the compound `CN(C)CCn1c(S(=O)(=O)C(F)(F)C(F)F)nc(-c2ccc(F)cc2)c1-c1ccc(F)cc1` [Example 27], the 50% effective dose (ED50) is under 7 mg/kg.

`C=CCn1c(S(=O)(=O)C(F)(F)C(F)F)nc(-c2ccc(F)cc2)c1-c1ccc(F)cc1` [Example 26]: the ED50 amounted to 2 mg/kg.

As to `CCn1c(SC(F)(F)C(F)F)nc(-c2ccc(F)cc2)c1-c1ccc(F)cc1` [Example 20], the 50% effective dose (ED50) stood at 3 mg/kg.

As to `O=C(OCc1ccccc1)n1c(SC(F)(F)C(F)F)nc(-c2ccccc2)c1-c1ccccc1` [Example 12, 1-Benzyloxycarbonyl-4,5-diphenyl-2-(1,1,2,2-tetrafluoroethylthio)imidazole], the ED50 was under 25 mg/kg.

As for `CN(C)C(=S)n1c(SC(F)(F)C(F)F)nc(-c2ccccc2)c1-c1ccccc1` [Example 9, 1-(N,N-Dimethylthiocarbamoyl)-4,5-diphenyl-2-(1,1,2,2-tetrafluoroethylthio)imidazole], the 50% effective dose (ED50) was under 15 mg/kg.

Regarding `CC(C)(C)C(=O)OCn1c(S(=O)(=O)C(F)(F)C(F)F)nc(-c2ccc(F)cc2)c1-c1ccc(F)cc1` [Example 13, 4,5-bis(4-Fluorophenyl)-1-(pivaloyloxymethyl)-2-(1,1,2,2-tetrafluoroethylsulfonyl)imidazole], the ED50 came out at 1.2 mg/kg.

With `CCCn1c(SC(F)(F)C(F)F)nc(-c2ccc(F)cc2)c1-c1ccc(F)cc1` [Example 21], the ED50 is 14 mg/kg.

Turning to `O=S(=O)(c1ccccc1)n1c(SC(F)(F)C(F)F)nc(-c2ccccc2)c1-c1ccccc1` [Example 14, 1-Benzenesulfonyl-4,5-diphenyl-2-(1,1,2,2-tetrafluoroethylthio)imidazole], the ED50 is about 35 mg/kg.

As for `Cn1c(SC(F)(F)C(F)F)nc(-c2ccc(F)cc2)c1-c1ccc(F)cc1` [Example 19], the ED50 was 2.3 mg/kg.

For `CNC(=O)N(C)C(=O)n1c(SC(F)(F)C(F)F)nc(-c2ccccc2)c1-c1ccccc1` [Example 11, N-Methyl-N-(methylaminocarbonyl)-4,5-diphenyl-2-(1,1,2,2-tetrafluoroethylthio)imidazole-1-carboxamide], the 50% effective dose (ED50) worked out at 1.8 mg/kg.

As to `Cn1c(SC(F)(F)F)nc(-c2ccc(F)cc2)c1-c1ccc(F)cc1` [Example 28], the ED50 stood at 2.1 mg/kg.

`Cn1c(S(=O)(=O)C(F)(F)C(F)F)nc(-c2ccc(F)cc2)c1-c1ccc(F)cc1` [Example 8, 4,5-bis(4-Fluorophenyl)-1-methyl-2-(1,1,2,2-tetrafluoroethylsulfonyl)imidazole]: the ED50 turned out to be 1 mg/kg.

With `CCCn1c(S(=O)(=O)C(F)(F)C(F)F)nc(-c2ccc(F)cc2)c1-c1ccc(F)cc1` [Example 24], the ED50 is over 9 mg/kg.

In the case of `CS(=O)(=O)n1c(SC(F)(F)C(F)F)nc(-c2ccccc2)c1-c1ccccc1` [Example 32], the ED50 was about 21 mg/kg.

For the compound `FC(F)C(F)(F)Sc1nc(-c2ccccc2)c(-c2ccccc2)n1C1CCCO1` (stereo not drawn) [Example 16, 4,5-Diphenyl-2-(1,1,2,2-tetrafluoroethylthio)-1-(2-tetrahydrofuranyl)imidazole], the ED50 is 2.7 mg/kg.

With `CCOC(=O)n1c(SC(F)(F)C(F)F)nc(-c2ccccc2)c1-c1ccccc1` [Example 3, 4,5-Diphenyl-1-ethoxycarbonyl-2-(1,1,2,2-tetrafluoroethylthio)imidazole], the 50% effective dose (ED50) was found to be 2.3 mg/kg.

For `O=S(=O)(c1nc(-c2ccccc2)c(-c2ccccc2)n1COCc1ccccc1)C(F)(F)C(F)F` [Example 4, 1-Benzyloxymethyl-4,5-diphenyl-2-(1,1,2,2-tetrafluoroethylsulfonyl)imidazole], the median effective dose (ED50) was determined as 1.3 mg/kg.

With `FC(F)(F)Sc1nc(-c2ccccc2)c(-c2ccccc2)n1C1CCCCO1` (stereo not drawn) [Example 5, 4,5-Diphenyl-1-(2-tetrahydropyranyl)-2-trifluoromethylthiomidazole], the ED50 worked out at 18 mg/kg.

Regarding `FC(F)C(F)(F)Sc1nc(-c2ccccc2)c(-c2ccccc2)n1COCc1ccccc1` [Example 2, 1-Benzyloxymethyl-4,5-diphenyl-2-(1,1,2,2-tetrafluoroethylthio)imidazole], the 50% effective dose (ED50) was found to be 3.7 mg/kg.

As to `O=C(c1ccccc1)n1c(SC(F)(F)C(F)F)nc(-c2ccccc2)c1-c1ccccc1` [Example 34], the ED50 came to 2.3 mg/kg.

As to `CCn1c(S(=O)(=O)C(F)(F)C(F)F)nc(-c2ccc(F)cc2)c1-c1ccc(F)cc1` [Example 23], the 50% effective dose (ED50) was determined as 4.8 mg/kg.

Still in this assay, the particulars now being: oral, 7 daily doses, rats; determined as % paw volume reduction from control (uninjected, left hind paw).
Regarding “Mixture of 1-Ethoxycarbonyl-4-(4-fluorophenyl)-5-phenyl-2-(1,1,2,2-tetrafluoroethylthio)imidazole and 1-Ethoxycarbonyl-5-(4-fluorophenyl)-4-phenyl-2-(1,1,2,2-tetrafluoroethylthio)imidazole [Example 7]”, the “A.A. ED50 % (ED50% decrease from control paw volume)” value was 0.65 mg/kg.

Source of the values: patent US4182769A, “Anti-inflammatory 1-substituted-4,5-diaryl-2-(substituted-thio) imidazoles and their corresponding sulfoxides and sulfones” (E. I. Du Pont de Nemours and Company, priority 1978, dated 1980).
